US10604554B2, “Double-acylated GLP-1 derivatives” (Novo Nordisk A/S, priority 2012, dated 2020)
Like-named read-outs stand apart in the source and are kept apart here.

Biological target: T1, human GLP-1 receptor (Homo sapiens, UniProt P43220)
T1 construct: expressed in transfected cells; host or cells: BHK cells, clone FCW467-12A/KZ10-1 (parent line BHKTS13), further transfected with CRE luciferase
Experiment: In vitro potency (AlphaScreen cAMP, membranes)
Assay type: biochemical
Procedure: The purpose of this example is to test the activity, or potency, of the GLP-1 derivatives in vitro.
Purified plasma membranes from a stable transfected cell line, BHK467-12A (tk-ts13), expressing the human GLP-1 receptor were stimulated with the GLP-1 analogue or derivative in question, and the potency of cAMP production was measured using the AlphaScreen™ cAMP Assay Kit from Perkin Elmer Life Sciences. The basic principle of the AlphaScreen Assay is a competition between endogenous cAMP and exogenously added biotin-cAMP. The capture of cAMP is achieved by using a specific antibody conjugated to acceptor beads.
A stable transfected cell line and a high expressing clone were selected for screening. The cells were grown at 5% CO2 in DMEM, 5% FCS, 1% Pen/Strep (Penicillin/Streptomycin) and 0.5 mg/ml of the selection marker G418.
Cells at approximately 80% confluence were washed 2× with PBS and harvested with Versene (aqueous solution of the tetrasodium salt of ethylenediaminetetraacetic acid), centrifuged 5 min at 1000 rpm and the supernatant removed. The additional steps were all performed on ice. The cell pellet was homogenised by the Ultrathurax for 20-30 s in 10 ml of Buffer 1 (20 mM Na-HEPES, 10 mM EDTA, pH=7.4), centrifuged 15 min at 20,000 rpm and the pellet resuspended in 10 ml of Buffer 2 (20 mM Na-HEPES, 0.1 mM EDTA, pH=7.4). The suspension was homogenised for 20-30 s and centrifuged 15 min at 20,000 rpm. Suspension in Buffer 2, homogenisation and centrifugation was repeated once and the membranes were resuspended in Buffer 2. The protein concentration was determined and the membranes stored at −80° C. until use.
The assay was performed in flat-bottom 96-well plates (Costar cat. no:3693). The final volume per well was 50 μl.
AlphaScreen cAMP Assay Kit from Perkin Elmer Life Sciences (cat. No: 6760625M); containing Anti-cAMP Acceptor beads (10 U/μl), Streptavidin Donor beads (10 U/μl) and Biotinylated-cAMP (133 U/μl).
AlphaScreen Buffer, pH=7.4: 50 mM TRIS-HCl (Sigma, cat.no: T3253); 5 mM HEPES (Sigma, cat.no: H3375); 10 mM MgCl2, 6H2O (Merck, cat.no: 5833); 150 mM NaCl (Sigma, cat.no: S9625); 0.01% Tween (Merck, cat.no: 822184). The following was added to the AlphaScreen Buffer prior to use (final concentrations indicated): BSA (Sigma, cat. no. A7906): 0.1%; IBMX (Sigma, cat. no. 15879): 0.5 mM; ATP (Sigma, cat. no. A7699): 1 mM; GTP (Sigma, cat. no. G8877): 1 uM.
cAMP standard (dilution factor in assay=5): cAMP Solution: 5 μL of a 5 mM cAMP-stock+495 μL AlphaScreen Buffer.
Membranes were prepared from hGLP-1/BHK 467-12A cells with a concentration of 6 μg/well corresponding to 0.6 mg/ml (the amount of membranes used pr. well may vary)
“No membranes”: Acceptor Beads (15 μg/ml final) in AlphaScreen buffer
“6 μg/well membranes”: membranes+Acceptor Beads (15 μg/ml final) in AlphaScreen buffer
An aliquot (10 μl) of “No membranes” was added to the cAMP standard (per well in duplicate wells) and the positive and negative controls
An aliquot (10 μl) of “6 μg/well membranes” was added to GLP-1 and analogues (per well in duplicate or triplicate wells)
Pos. Control: 10 μl “no membranes”+10 μl AlphaScreen Buffer
Neg. Control: 10 μl “no membranes”+10 μl cAMP Stock Solution (50 μM)
As the beads are sensitive to direct light, any handling was in the dark (as dark as possible), or in green light. All dilutions were made on ice.
1. Make the AlphaScreen Buffer.
2. Dissolve and dilute the GLP-1/Analogues/cAMP standard in AlphaScreen Buffer.
3. Make the Donor Beads Solution by mixing streptavidin donor beads (2 units/well) and biotinylated cAMP (1.2 units/well) and incubate 20-30 min in the dark at room temperature
4. Add the cAMP/GLP-1/Analogues to the plate: 10 μl per well.
5. Prepare membrane/Acceptor Beads solution and add this to the plates: 10 μl per well.
6. Add the Donor Beads: 30 μl per well.
7. Wrap the plate in aluminum foil and incubate on the shaker for 3 hours (very slowly) at RT.

T1 sequence (P43220 24-463): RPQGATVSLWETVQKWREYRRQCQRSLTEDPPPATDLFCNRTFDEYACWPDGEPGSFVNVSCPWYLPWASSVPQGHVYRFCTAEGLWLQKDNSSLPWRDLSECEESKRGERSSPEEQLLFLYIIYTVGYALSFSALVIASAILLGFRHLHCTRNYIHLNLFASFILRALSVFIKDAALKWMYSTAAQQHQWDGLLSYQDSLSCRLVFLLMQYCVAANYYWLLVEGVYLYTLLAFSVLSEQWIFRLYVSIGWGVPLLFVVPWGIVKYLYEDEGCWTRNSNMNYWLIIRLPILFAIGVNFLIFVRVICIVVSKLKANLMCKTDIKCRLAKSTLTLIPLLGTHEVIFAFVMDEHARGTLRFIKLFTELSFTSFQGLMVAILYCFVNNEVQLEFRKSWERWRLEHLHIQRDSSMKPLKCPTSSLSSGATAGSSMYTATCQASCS

Structure (SMILES)	EC50	EC50 (cAMP formation in membranes from BHK467-12A cells expressing human GLP-1 receptor, read-out: In vitro potency (AlphaScreen) EC50)
CC[C@H](C)[C@H](NC(=O)[C@H](Cc1ccccc1)NC(=O)[C@H](CCC(=O)O)NC(=O)[C@H](CCCCNC(=O)[C@@H](N)CCCCNC(=O)COCCOCCNC(=O)CC[C@H](NC(=O)CC[C@H](NC(=O)CCCCCCCCCCCOc1ccc(C(=O)O)cc1)C(=O)O)C(=O)O)NC(=O)[C@H](C)NC(=O)[C@H](C)NC(=O)[C@H](CCC(N)=O)NC(=O)CNC(=O)[C@H](CCC(=O)O)NC(=O)[C@H](CC(C)C)NC(=O)[C@H](Cc1ccc(O)cc1)NC(=O)[C@H](CO)NC(=O)[C@H](CO)NC(=O)[C@@H](NC(=O)[C@H](CC(=O)O)NC(=O)[C@H](CO)NC(=O)[C@@H](NC(=O)[C@H](Cc1ccccc1)NC(=O)[C@@H](NC(=O)CNC(=O)[C@H](CCC(=O)O)NC(=O)C(C)(C)NC(=O)[C@@H](N)Cc1c[nH]cn1)[C@@H](C)O)[C@@H](C)O)C(C)C)C(=O)N[C@@H](C)C(=O)N[C@@H](Cc1c[nH]c2ccccc12)C(=O)N[C@@H](CC(C)C)C(=O)N[C@H](C(=O)N[C@@H](CCCNC(=N)N)C(=O)NCC(=O)N[C@@H](CCCNC(=N)N)C(=O)N[C@@H](CCCCNC(=O)[C@@H](N)CCCCNC(=O)COCCOCCNC(=O)CC[C@H](NC(=O)CC[C@H](NC(=O)CCCCCCCCCCCOc1ccc(C(=O)O)cc1)C(=O)O)C(=O)O)C(=O)O)C(C)C [Example 15, N^ε26-[(2S)-2-amino-6-[[2-[2-[2-[[(4S)-4-carboxy-4-[[(4S)-4-carboxy-4-[12-(4-carboxyphenoxy)dodecanoylamino]butanoyl]amino]butanoyl]amino]ethoxy]ethoxy]acetyl]amino]hexanoyl], N^ε37-[(2S)-2-amino-6-[[2-[2-[2-[[(4S)-4-carboxy-4-[[(4S)-4-carboxy-4-[12-(4-carboxyphenoxy)dodecanoylamino]butanoyl]amino]butanoyl]amino]ethoxy]ethoxy]acetyl]amino]hexanoyl]-[Aib^8,Arg^34,Lys^37]-GLP-1-(7-37)-peptide]	0.155 nM	
CC[C@H](C)[C@H](NC(=O)[C@H](Cc1ccccc1)NC(=O)[C@H](CCC(=O)O)NC(=O)[C@H](CCCCNC(=O)[C@@H](N)CCCCNC(=O)CC[C@H](NC(=O)CC[C@H](NC(=O)CC[C@H](NC(=O)CCCCCCCCCCCCCCC(=O)O)C(=O)O)C(=O)O)C(=O)O)NC(=O)[C@H](C)NC(=O)[C@H](C)NC(=O)[C@H](CCC(N)=O)NC(=O)CNC(=O)[C@H](CCC(=O)O)NC(=O)[C@H](CC(C)C)NC(=O)[C@H](Cc1ccc(O)cc1)NC(=O)[C@H](CO)NC(=O)[C@H](CO)NC(=O)[C@@H](NC(=O)[C@H](CC(=O)O)NC(=O)[C@H](CO)NC(=O)[C@@H](NC(=O)[C@H](Cc1ccccc1)NC(=O)[C@@H](NC(=O)CNC(=O)[C@H](CCC(=O)O)NC(=O)C(C)(C)NC(=O)[C@@H](N)Cc1c[nH]cn1)[C@@H](C)O)[C@@H](C)O)C(C)C)C(=O)N[C@@H](C)C(=O)N[C@@H](Cc1c[nH]c2ccccc12)C(=O)N[C@@H](CC(C)C)C(=O)N[C@H](C(=O)N[C@@H](CCCNC(=N)N)C(=O)NCC(=O)N[C@@H](CCCNC(=N)N)C(=O)N[C@@H](CCCCNC(=O)[C@@H](N)CCCCNC(=O)CC[C@H](NC(=O)CC[C@H](NC(=O)CC[C@H](NC(=O)CCCCCCCCCCCCCCC(=O)O)C(=O)O)C(=O)O)C(=O)O)C(=O)O)C(C)C [Example 13, N^ε26-[(2S)-2-amino-6-[[(4S)-4-carboxy-4-[[(4S)-4-carboxy-4-[[(4S)-4-carboxy-4-(15-carboxypentadecanoylamino)butanoyl]amino]butanoyl]amino]butanoyl]amino]hexanoyl], N^ε37-[(2S)-2-amino-6-[[(4S)-4-carboxy-4-[[(4S)-4-carboxy-4-[[(4S)-4-carboxy-4-(15-carboxypentadecanoylamino)butanoyl]amino]butanoyl]amino]butanoyl]amino]hexanoyl]-[Aib^8,Arg^34,Lys^37]-GLP-1-(7-37)-peptide]		0.385 nM
CC[C@H](C)[C@H](NC(=O)[C@H](Cc1ccccc1)NC(=O)[C@H](CCC(=O)O)NC(=O)[C@H](CCCCNC(=O)[C@@H](N)CCCCNC(=O)[C@@H](N)CCCCNC(=O)CC[C@H](NC(=O)CC[C@H](NC(=O)CCCCCCCCCCCOc1ccc(C(=O)O)cc1)C(=O)O)C(=O)O)NC(=O)[C@H](C)NC(=O)[C@H](C)NC(=O)[C@H](CCC(N)=O)NC(=O)CNC(=O)[C@H](CCC(=O)O)NC(=O)[C@H](CC(C)C)NC(=O)[C@H](Cc1ccc(O)cc1)NC(=O)[C@H](CO)NC(=O)[C@H](CO)NC(=O)[C@@H](NC(=O)[C@H](CC(=O)O)NC(=O)[C@H](CO)NC(=O)[C@@H](NC(=O)[C@H](Cc1ccccc1)NC(=O)[C@@H](NC(=O)CNC(=O)[C@H](CCC(=O)O)NC(=O)C(C)(C)NC(=O)[C@@H](N)Cc1c[nH]cn1)[C@@H](C)O)[C@@H](C)O)C(C)C)C(=O)N[C@@H](C)C(=O)N[C@@H](Cc1c[nH]c2ccccc12)C(=O)N[C@@H](CC(C)C)C(=O)N[C@H](C(=O)N[C@@H](CCCNC(=N)N)C(=O)NCC(=O)N[C@@H](CCCNC(=N)N)C(=O)N[C@@H](CCCCNC(=O)[C@@H](N)CCCCNC(=O)[C@@H](N)CCCCNC(=O)CC[C@H](NC(=O)CC[C@H](NC(=O)CCCCCCCCCCCOc1ccc(C(=O)O)cc1)C(=O)O)C(=O)O)C(=O)O)C(C)C [Example 16, N^ε26-[(2S)-2-amino-6-[[(2S)-2-amino-6-[[(4S)-4-carboxy-4-[[(4S)-4-carboxy-4-[12-(4-carboxyphenoxy)dodecanoylamino]butanoyl]amino]butanoyl]amino]hexanoyl]amino]hexanoyl], N^ε37-[(2S)-2-amino-6-[[(2S)-2-amino-6-[[(4S)-4-carboxy-4-[[(4S)-4-carboxy-4-[12-(4-carboxyphenoxy)dodecanoylamino]butanoyl]amino]butanoyl]amino]hexanoyl]amino]hexanoyl]-[Aib^8,Arg^34,Lys^37]-GLP-1-(7-37)-peptide]	0.154 nM	
